Target: T1, WT hSLACK (Homo sapiens, UniProt Q5JUK3)
T1 construct: host or cells: CHO-K1
T1 sequence (Q5JUK3 1-1235 isoform Q5JUK3-3): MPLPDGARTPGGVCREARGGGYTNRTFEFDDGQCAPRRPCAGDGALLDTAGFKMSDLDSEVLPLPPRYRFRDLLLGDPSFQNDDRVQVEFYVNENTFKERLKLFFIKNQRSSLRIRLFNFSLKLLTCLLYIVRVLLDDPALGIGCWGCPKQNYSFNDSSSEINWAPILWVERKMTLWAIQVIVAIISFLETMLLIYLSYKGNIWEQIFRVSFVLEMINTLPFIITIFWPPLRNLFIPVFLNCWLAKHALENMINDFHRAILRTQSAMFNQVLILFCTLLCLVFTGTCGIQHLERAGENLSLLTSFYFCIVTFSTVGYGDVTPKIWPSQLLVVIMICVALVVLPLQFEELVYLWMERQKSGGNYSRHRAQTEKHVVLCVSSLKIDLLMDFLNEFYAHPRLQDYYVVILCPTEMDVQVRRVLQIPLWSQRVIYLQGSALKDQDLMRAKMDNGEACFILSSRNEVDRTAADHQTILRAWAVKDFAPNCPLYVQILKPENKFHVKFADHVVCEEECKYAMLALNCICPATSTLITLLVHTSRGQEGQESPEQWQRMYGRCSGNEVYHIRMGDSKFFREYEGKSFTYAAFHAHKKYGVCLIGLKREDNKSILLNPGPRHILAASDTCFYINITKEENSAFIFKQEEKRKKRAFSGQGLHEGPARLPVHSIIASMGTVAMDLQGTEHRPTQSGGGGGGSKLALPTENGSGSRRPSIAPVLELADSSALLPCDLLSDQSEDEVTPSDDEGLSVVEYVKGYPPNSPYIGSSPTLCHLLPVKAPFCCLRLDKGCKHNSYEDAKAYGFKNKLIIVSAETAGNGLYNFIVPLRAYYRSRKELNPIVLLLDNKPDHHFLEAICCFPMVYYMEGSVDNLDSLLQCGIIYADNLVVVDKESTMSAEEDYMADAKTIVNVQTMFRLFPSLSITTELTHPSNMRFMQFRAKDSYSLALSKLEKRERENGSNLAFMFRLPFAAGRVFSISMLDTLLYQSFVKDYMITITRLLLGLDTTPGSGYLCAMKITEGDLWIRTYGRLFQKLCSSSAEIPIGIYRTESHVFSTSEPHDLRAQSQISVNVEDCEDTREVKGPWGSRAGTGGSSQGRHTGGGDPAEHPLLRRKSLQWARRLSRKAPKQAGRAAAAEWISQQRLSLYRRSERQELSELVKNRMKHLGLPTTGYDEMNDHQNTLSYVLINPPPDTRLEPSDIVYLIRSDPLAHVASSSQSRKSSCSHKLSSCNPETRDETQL
Assay: Whole-cell automated patch-clamp (APC) in CHO cells stably expressing WT hSLACK
Type: cell-based
Details: for SLACK Imax: maximum inhibition at 30 µM test compound standardized to VU0606170 (set at 100%), WT hSLACK; for IC50: whole-cell APC, CHO cells stably expressing WT hSLACK, averages n ≥ 3, read-out: SLACK IC50
Experimental: All new analogs were tested in our APC assay using CHO cells stably expressing WT SLACK using a concentration-response format with concentrations ranging from 0.125 to 30 μM in half-log steps and a minimum of three cells (replicates) per concentration series. […] Still, there were some notable results. For example, substitution at the 4-position was largely unfavorable regardless of the nature of the substituent (21, 24, 27, 30, and 33) apart from the 4-fluoro analog 18. […] As the trifluoromethyl group is similar in electronegativity to chlorine, but larger than both methyl and chlorine, perhaps the steric bulk of the trifluoromethyl is to blame for the poor potency of these analogs. With the exception of the fluoro (16–18) and cyano (28–30) analogs, substitution at the 3-position was favorable for SLACK activity, with 3-methoxy analog 32 standing out in this set.
Stably transfected monoclonal HEK293 cell lines expressing Slick, Maxi-K α1/β3, Maxi-K α1/β4, CaV3.2, GIRK 1/2, KV2.1, KV7.2, NaV1.7, and TASK-1 were generated as previously described. Stably transfected monoclonal HEK293 cell lines expressing hERG were generated as previously described. CHO-K1 cells expressing human Slack and disease-associated human Slack mutations, G288S and A934T, were generated by transfecting a PiggyBac TRE mammalian expression vector (VectorBuilder, Chicago, IL, USA) containing KCNT1. FuGENE 6 (Promega, Madison, WI, USA) transfection reagent and protocol, together with Opti-MEM (Thermo Fisher Scientific, Walkham, MA, USA), were utilized.
Automated patch-clamp recording was performed with a SyncroPatch 768 PE system (Nanion, Munich, Germany) as previously described. Whole-cell recordings were performed at room temperature. Cells were harvested by first washing with PBS without Mg^2+ or Ca^2+ (Gibco, Billings, MT, USA) to remove cell culture media, followed by dissociation with TryPLE (Gibco, Billings, MT, USA). Cells were then resuspended and diluted to 100,000 cells/mL in external solution. External solution contained 105 mM NaCl, 4 mM KCl, 1 mM MgCl2, 5 mM CaCl2, 10 mM HEPES, and 40 mM N-Methyl-D-glucamine chloride, titrated to pH of 7.4 and osmolarity of 300 mOsm/kg; internal solution contained 70 mM NaCl, 70 mM KF, 10 mM KCl, 5 mM EGTA, and 5 mM HEPES, titrated to a pH of 7.2 and osmolarity of 295 mOsm/kg.
The APC protocol was set as follows: Cells were held at a […] of −80 mV for 100 ms, then a ramp protocol was performed from −100 mV to 80 mV at 0.4 mV/ms, followed by holding the cell at −80 mV for another 100 ms, then steps were performed at −20 mV, 0 mV, +20 mV, +40 mV, and +60 mV for 100 ms of each step. Whole-cell currents were measured at 0 mV and normalized to current after external buffer addition. […] To obtain the concentration-response relationship graphs and IC50 values, we take the median value of the last 7 current amplitude values obtained for each set of data points collected for a given concentration at a particular step.

Row | SMILES | SLACK Imax [%] | IC50 [nM] | SLACK activity (in words) (APC, WT SLACK)
1 | Cn1c(N(Cc2ccccc2)Cc2ccccc2)nc2c1c(=O)n(Cc1ccccc1)c(=O)n2C [Analog 72] | 100 | 1400 | 
2 | Cn1c(CCc2ccccc2)nc2c1c(=O)n(Cc1ccccc1)c(=O)n2C [Analog 77] | 103 | 7000 | 
3 | CN(Cc1cccc(C(F)(F)F)c1)c1nc2c(c(=O)n(Cc3ccccc3)c(=O)n2C)n1C [Analog 57] | 101 | 1500 | 
4 | CN(Cc1ccccc1F)c1nc2c(c(=O)n(Cc3ccccc3)c(=O)n2C)n1C [Analog 47] | 100 | 2700 | 
5 | Cn1c(N2Cc3ccccc3C2)nc2c1c(=O)n(Cc1ccccc1)c(=O)n2C [Analog 74] |  |  | inactive
6 | CN(Cc1ccccc1)c1nc2c(c(=O)n(Cc3cccc(C(F)(F)F)c3)c(=O)n2C)n1C [Analog 26] | 100 | 4200 | 
7 | CC(C)N(Cc1ccccc1)c1nc2c(c(=O)n(Cc3ccccc3)c(=O)n2C)n1C [Analog 69] | 100 | 3400 | 
8 | CN(Cc1ccccc1)c1nc2c(c(=O)n(Cc3ccccc3C#N)c(=O)n2C)n1C [Analog 28] | 99 | 2500 | 
9 | COc1ccccc1CN(C)c1nc2c(c(=O)n(Cc3ccccc3)c(=O)n2C)n1C [Analog 59] | 101 | 4700 | 
10 | CN(Cc1ccccc1C(F)(F)F)c1nc2c(c(=O)n(Cc3ccccc3)c(=O)n2C)n1C [Analog 56] | 100 | 1900 | 
11 | CCN(Cc1ccccc1)c1nc2c(c(=O)n(Cc3ccccc3)c(=O)n2C)n1C [Analog 67] | 100 | 1400 | 
12 | Cn1c(N2CCc3ccccc3C2)nc2c1c(=O)n(Cc1ccccc1)c(=O)n2C [Analog 75] | 100 | 2800 | 
13 | CCCn1c(N(C)Cc2ccccc2)nc2c1c(=O)n(Cc1ccccc1)c(=O)n2C [Analog 42] | 94 | > 10000 | 
14 | CCn1c(N(C)Cc2ccccc2)nc2c1c(=O)n(Cc1ccccc1)c(=O)n2C [Analog 41] | 87 | > 10000 | 
15 | COc1ccccc1Cn1c(=O)c2c(nc(N(C)Cc3ccccc3)n2C)n(C)c1=O [Analog 31] | 100 | 1300 | 
16 | Cn1c(NCc2ccccc2)nc2c1c(=O)n(Cc1ccccc1)c(=O)n2C [Analog 46a] | 88 | 6000 | 
17 | C[C@H](c1ccccc1)N(C)c1nc2c(c(=O)n(Cc3ccccc3)c(=O)n2C)n1C [Analog 65] | 100 | 1600 | 
18 | C[C@@H](c1ccccc1)N(C)c1nc2c(c(=O)n(Cc3ccccc3)c(=O)n2C)n1C [Analog 66] | 50 | > 10000 | 

Second part, the compound after the results:

Row | SLACK Imax [%] | IC50 [nM] | SLACK activity (in words) (APC, WT SLACK) | SMILES
19 | 102 | 5500 |  | Cc1ccc(Cn2c(=O)c3c(nc(N(C)Cc4ccccc4)n3C)n(C)c2=O)cc1 [Analog 24]
20 | 107 | > 10000 |  | CN(Cc1ccccn1)c1nc2c(c(=O)n(Cc3ccccc3)c(=O)n2C)n1C [Analog 62]
21 | 100 | 2700 |  | COc1cccc(CN(C)c2nc3c(c(=O)n(Cc4ccccc4)c(=O)n3C)n2C)c1 [Analog 60]
22 | 100 | 2400 |  | CN(Cc1ccccc1)c1nc2c(c(=O)n(Cc3cccc(C#N)c3)c(=O)n2C)n1C [Analog 29]
23 | 100 | 1800 |  | CN(Cc1ccccc1)c1nc2c(c(=O)n(Cc3ccccc3F)c(=O)n2C)n1C [Analog 16]
24 | 100 | 1900 |  | CN(Cc1ccccc1)c1nc2c(c(=O)n(Cc3cccc(Cl)c3)c(=O)n2C)n1C [Analog 20]
25 | 100 | 1700 |  | CN(Cc1cccc(Cl)c1)c1nc2c(c(=O)n(Cc3ccccc3)c(=O)n2C)n1C [Analog 51]
26 | 100 | 1700 |  | CN(Cc1ccccc1)c1nc2c(c(=O)n(Cc3ccccc3)c(=O)n2C)n1C [Analog 8]
27 | 100 | 9900 |  | Cc1ccccc1CN(C)c1nc2c(c(=O)n(Cc3ccccc3)c(=O)n2C)n1C [Analog 53]
28 | 100 | 3000 |  | CN(Cc1ccccc1Cl)c1nc2c(c(=O)n(Cc3ccccc3)c(=O)n2C)n1C [Analog 50]
29 | 100 | 1600 |  | Cc1ccccc1Cn1c(=O)c2c(nc(N(C)Cc3ccccc3)n2C)n(C)c1=O [Analog 22]
30 | 78 | > 10000 |  | COc1ccc(Cn2c(=O)c3c(nc(N(C)Cc4ccccc4)n3C)n(C)c2=O)cc1 [Analog 33]
31 | 100 | 1900 |  | CN(Cc1ccc(C(F)(F)F)cc1)c1nc2c(c(=O)n(Cc3ccccc3)c(=O)n2C)n1C [Analog 58]
32 | 70 | > 10000 |  | CN(Cc1ccncc1)c1nc2c(c(=O)n(Cc3ccccc3)c(=O)n2C)n1C [Analog 64]
33 | 100 | 1600 |  | CN(Cc1ccc(F)cc1)c1nc2c(c(=O)n(Cc3ccccc3)c(=O)n2C)n1C [Analog 49]
34 | 100 | 1300 |  | CN(Cc1ccccc1)c1nc2c(c(=O)n(Cc3ccc(F)cc3)c(=O)n2C)n1C [Analog 18]
35 | 100 | 2600 |  | CN(Cc1ccccc1)c1nc2c(c(=O)n(Cc3ccc(Cl)cc3)c(=O)n2C)n1C [Analog 21]
36 | 100 | 2400 |  | COc1ccc(CN(C)c2nc3c(c(=O)n(Cc4ccccc4)c(=O)n3C)n2C)cc1 [Analog 61]
37 | 100 | 2300 |  | CN(Cc1ccc(Cl)cc1)c1nc2c(c(=O)n(Cc3ccccc3)c(=O)n2C)n1C [Analog 52]
38 | 100 | 1800 |  | Cc1ccc(CN(C)c2nc3c(c(=O)n(Cc4ccccc4)c(=O)n3C)n2C)cc1 [Analog 55]
39 | 100 | 2400 |  | CN(Cc1ccccc1)c1nc2c(c(=O)n(Cc3ccc(C#N)cc3)c(=O)n2C)n1C [Analog 30]
40 | 100 | 1600 |  | CN(Cc1ccccc1)c1nc2c(c(=O)n(Cc3cccc(F)c3)c(=O)n2C)n1C [Analog 17]

— publication PMC11173529, “Structure–Activity Relationship Studies in a Series of Xanthine Inhibitors of SLACK Potassium Channels” (Molecules, 2024)
